“And” between values parts separate entries of the source, which are not always exact repeats. Equal values may be shown once.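 Dose response: 5 concentrations. Exposure: 48 h. Format: 96-well plates. Endpoint: linear interpolation; highest concentration if not reached. GI50 = concentration required for 50% inhibition of growth. The concentration for full growth arrest is given as TGI.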
Legend:
Test in all cases: NCI-60 cell line screen, 48 h
[1] = tested on: A498 renal
[2] = tested on: LOX IMVI melanoma
[3] = tested on: MCF7 breast
[4] = tested on: NCI-H522 lung
[5] = tested on: OVCAR-3 ovarian
[6] = tested on: OVCAR-5 ovarian
[7] = tested on: PC-3 prostate
[8] = tested on: SK-MEL-5 melanoma
[9] = tested on: SN12C renal
[10] = tested on: UO-31 renal

SMILES	GI50 [1]	TGI [1]	GI50 [2] [µM]	TGI [2]	GI50 [3]	TGI [3]	GI50 [4]	TGI [4]	GI50 [5]	TGI [5]	GI50 [6]	TGI [6]	GI50 [7]	TGI [7]	GI50 [8]	TGI [8]	GI50 [9]	TGI [9]	GI50 [10]	TGI [10]
COc1ccc2[nH]c(C(=O)OCc3ccc4c(Br)cc(Br)c(O)c4n3)cc2c1	1.8 µM	3.31 µM	0.188	0.453 µM	0.442 µM	2.05 µM	0.395 µM	1.82 µM	0.447 µM	1.56 µM	1.21 µM	2.66 µM	0.73 µM	2.27 µM	1.61 µM	2.97 µM	0.617 µM	2.02 µM	0.36 µM	1.85 µM
Nc1c(C(=O)Nc2cccc(Cl)c2)sc2nc3c(cc12)C(O)CCC3 (configuration not stated)	0.182 µM	13.6 µM	0.762	52.1 µM	0.344 µM	53.4 µM	0.434 µM	23.6 µM	0.311 µM	1.22 µM	2.89 µM	33.9 µM	0.416 µM	25.2 µM	0.375 µM	18.3 µM	0.773 µM	> 100 µM	1.1 µM	26.8 µM
Nc1nc2ccc(CNc3ccc(C(=O)NC(CC(=O)O)C(=O)O)cc3)cc2c(=O)[nH]1 (configuration not stated)	> 38.9 µM	> 100 µM	0.472	> 100 µM	1.2 µM	> 100 µM	14.4 µM	> 100 µM	16.2 µM	> 100 µM	> 47.2 µM	> 100 µM	0.655 µM	> 100 µM	5.35 µM	> 100 µM	3.86 µM	> 100 µM	9.74 µM	> 100 µM
O=C(O)CN1C(=O)OC(c2ccccc2)C1=O (configuration not stated)	–	> 100 µM	–	> 100 µM	–	> 100 µM	–	> 100 µM	–	> 100 µM	–	> 100 µM	–	> 100 µM	–	> 100 µM	–	> 100 µM	–	> 100 µM
CCCCCCCCCCCCC(O)C1CCC(C(O)CCCCC(O)CCCCCC2CC(CC(C)=O)C(=O)O2)O1 (configuration not stated)	5.64 µM	20.6 µM	1.06	2.24 µM and 9.49 µM	–	3.82 µM	–	19.9 µM	1.37 µM	2.65 µM and 7.59 µM	3.92 µM	23.6 µM	–	4.24 µM	0.112 µM	2.11 µM and 5.09 µM	2.54 µM	8.27 µM and 20.2 µM	1.06 µM	3.81 µM and 14 µM
CC(=O)Oc1ccc(C2OC(c3ccc4ccccc4c3OC(C)=O)=NN2C(C)=O)c(OC(C)=O)c1 (configuration not stated)	1.73 µM	17.5 µM	0.301	33.8 µM	0.413 µM	> 38.6 µM	0.369 µM	6.22 µM	0.354 µM	26.1 µM	2.22 µM	> 100 µM	0.448 µM	> 59.6 µM	0.321 µM	> 32.3 µM	0.512 µM	> 70.6 µM	0.146 µM	3.14 µM
CCOC(=O)c1c(C)n([O-])c2cc(F)c(F)cc2[n+]1=O	15.9 µM	30 µM	0.514	1.63 µM	4.32 µM	> 37.4 µM	1.04 µM	2.72 µM	1.1 µM	2.42 µM	1.78 µM	3.2 µM	1.65 µM	3.59 µM	2.31 µM	5.45 µM	1.01 µM	2.18 µM	1.44 µM	2.85 µM
CCOC(=O)C1=C(C)NC2SC(=O)/C(=C\c3cccc(Cl)c3)N2C1c1ccccc1 (configuration not stated)	> 100 µM	> 100 µM	> 100	> 100 µM	31.2 µM	> 100 µM	> 100 µM	> 100 µM	> 100 µM	> 100 µM	> 100 µM	> 100 µM	> 100 µM	> 100 µM	58.7 µM	> 100 µM	> 100 µM	> 100 µM	> 100 µM	> 100 µM
CC[C@]12C=CCN3CC[C@]4(C(=C(C(=O)OC)C1)Nc1cc5c(cc14)[C@@H]1[C@H](O5)[C@@H](O)[C@@]4(CC)CC(C(=O)OC)=C5Nc6ccccc6[C@@]56CCN1[C@@H]46)[C@@H]32	0.0729 µM and 0.283 µM	0.788 µM and 1.17 µM	0.39	2.35 µM	0.144 µM and 0.275 µM	25 µM and 26.6 µM	0.202 µM and 0.312 µM	2.75 µM and 5.33 µM	0.24 µM and 0.255 µM	1.13 µM and 1.29 µM	0.749 µM and 0.826 µM	25 µM and 21.3 µM	0.435 µM and 0.776 µM	25 µM and 16.2 µM	0.662 µM and 0.348 µM	4.01 µM and 1.48 µM	0.464 µM and 0.499 µM	25 µM and 33.5 µM	0.0951 µM and 0.127 µM	3.31 µM and 6.25 µM
Cc1ccc2ncnc(N(C)C3CCCCC3)c2c1	77.1 µM	> 100 µM	21.7	68.3 µM	41.3 µM	> 100 µM	39 µM	> 100 µM	23.3 µM	54.5 µM	41.2 µM	> 100 µM	27.1 µM	87.4 µM	> 100 µM	> 100 µM	39.6 µM	> 100 µM	24.5 µM	> 100 µM
COc1cc2c(Nc3ccc(-c4ccc(N)cc4)cc3)ncnc2c(OC)c1OC	15.1 µM	56 µM	0.438	> 100 µM	3.54 µM	> 100 µM	3.15 µM	> 80.9 µM	6.43 µM	> 59.3 µM	6.29 µM	> 100 µM	5.46 µM	> 89.1 µM	1.94 µM	5.3 µM	11.2 µM	> 100 µM	2.07 µM	> 76.5 µM
COc1ccccc1CNCCCN1C(=O)c2ccc3c4c(ccc(c24)C1=O)C(=O)N(CCCNCCCCNCCCN)C3=O	1.34 µM	3.14 µM	0.3	1.57 µM	0.2 µM	0.466 µM	0.176 µM	0.362 µM	0.261 µM	0.699 µM	2.03 µM	11 µM	0.561 µM	5.23 µM	0.159 µM	0.302 µM	0.319 µM	1.5 µM	2.66 µM	16.2 µM
CCOc1cc(Cl)c(C(C)NC(=O)c2cccc(OC)c2)cc1OCC (configuration not stated)	0.561 µM	21.9 µM	14.2	> 100 µM	4.6 µM	> 100 µM	5.04 µM	39.7 µM	4.19 µM	29.4 µM	> 52.7 µM	> 100 µM	15.1 µM	> 100 µM	7.39 µM	24.6 µM	28.9 µM	> 100 µM	13.9 µM	> 100 µM

— PubChem BioAssay (NCI)
